The record followed here is US20250129021A1, “SMALL MOLECULE PROTEIN SYNTHESIS MODULATORS” (Interdict Bio, Inc., priority 2023, published 2025).

Holding throughout (type): biochemical
Conditions in all cases: HeLa S3 lysate, sfGFP/mCherry ratio, 2 hrs at 30° C.

One assay concerns MYC. The assay can be described thus: In vitro transcription-translation (IVTT) assay, MYC reporter. The method, boiled down: (§1)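 Reporter: mCherry, P2A, then 3×FLAG-target peptide-sfGFP fusion, IRES-initiated; HeLa S3 lysate IVTT; cpd dilutions 30 μM−0.1 μM half-log in 100% DMSO (dilution-plate conc); DNA added last; 2 h, 30° C; PBS quench.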
The test system of a further assay is ALK. The assay can be described thus: In vitro transcription-translation (IVTT) assay, ALK reporter. The source says:
(§2) All reporter constructs have been cloned into the pT7CFE1-CHis plasmid (ThermoFisher #88860) using Gibson assembly procedures (NEB #E2611L). The parental pT7CFE1-CHis plasmid contains an EMCV IRES at the 5′UTR for translation initiation, a multiple-cloning site (MCS) for gene insertion, an optional C-terminal His-epitope tag, and polyA sequence in the 3′UTR to regulate mRNA stability. All reporters are designed to be inserted at the MCS to include a red fluorescent protein (mCherry), P2A self-cleaving peptide which releases the preceding mCherry protein product, and a fusion open reading frame containing a 3×FLAG epitope, a peptide sequence of interest (TEST), and green fluorescent protein (sfGFP).
(§3) Construct Plasmid Preparation: All plasmids are isolated from MACH1 cells (ThermoFisher) grown overnight in ampicillin-containing luria broth, and purified using ZymoPure Express Plasmid Midiprep Kit (Zymo Research). Constructs are sequenced verified and diluted to a working concentration of 110 ng/μL.
(§4) HeLa S3 Lysate Preparation: HeLa S3 cell pellets are acquired from Ipracell/Ipratech (Belgium) and shipped as 4 mL frozen cell pellets on dry ice for storage at −80° C. until use. The procedure for lysate preparation is as follows. Prepare 1× Lysis Buffer, cold and stored on ice:
(§5) Each preparation takes 8 cell pellets (4 ml packed volume each, approximately 1.0×10^9 cells per pellet). Thaw cell pellets from −80° C. on ice for 90 mins. Lay pellets horizontally on top of the ice and rotate every 30 mins to ensure even thawing. Once thawed, add 4 mL of cold lysis buffer to each pellet, and using a serological pipet, gently pipet up and down to break up clumps. Incubate resuspended cells in ice for an additional 30 mins (plunged into ice). During 30 min incubation, rinse and RNase-zap (Ambion) glass dounces (use loose pestle “A”), gently dry and place on ice until needed. Prepare RNase-free Eppendorf tubes for spinning and for batch storage. Add batch labels to 1.5-1.7 mL RNase-free microcentrifuge tubes (labeling scheme below). Each batch will have an extra 1.5-1.7 mL RNase-free microcentrifuge tube for 40 μL of lysate, label the top of this tube (labeling scheme below). After 30 min incubation, transfer all 8 mL of cell pellet to dounce. Cell lysis is complete after douncing 100 times. Aliquot cell lysis into 1.5-1.7 mL temporary-microcentrifuge tubes. Place tubes in centrifuge with “fins” out, and spin at 1,200×g for 5 mins. After the first spin use a 1 mL pipet to resuspend each tube and repeat spin. This acts as an additional lysis step, is more vigorous and increases lysate yield. During second spin get liquid N2 and a fresh conical tube on ice. After spin is complete, transfer supernatant (lysate) from microcentrifuge tubes into the 50 mL conical tube and keep on ice. Repeat steps 10-14 for all other cell pellets until completed. Once all cell lysate has been transferred to the 50 mL conical tube pipet to mix so the solution is homogenous. Transfer 1 mL of lysate into batch-labeled microcentrifuge tubes and flash freeze in liquid nitrogen. Be sure to pipet up and down to mix throughout transfer step. Place all tubes in the […] for long-term storage.
(§6) In vitro transcription-translation assay setup: Each assay includes a master mix containing lysate and shared components, a 96-well plate containing compound titrations for testing, a 96-well DNA plate with reporter constructs to be tested, 96-well skirted PCR plates, and 96-well flat-bottom, black, fluorescent assay plates. […]

A further assay deals with KRAS G12D. Put plainly: In vitro transcription-translation (IVTT) assay, KRAS G12D reporter.
From the text: as §2, §3, §4, §5, §6

Another assay concerns CCND1. The assay can be described thus: In vitro transcription-translation (IVTT) assay, CCND1 reporter. In outline: as §1
The test system of the next assay is MCL-1. Put plainly: In vitro transcription-translation (IVTT) assay, MCL-1 reporter. The method, boiled down: as §1

Molecules are shown by their SMILES. Structures can show the parent of a compound that is named as a salt.

As usually defined, the IC50 is the midpoint of a concentration-inhibition curve. As to `CCN(CC)CCCNC(=O)O[C@@H]1[C@@H](O)CN[C@@H]1Cc1ccc(OC)cc1` [V187387, (2R,3S,4S)-4-hydroxy-2-[(4-methoxyphenyl)methyl]pyrrolidin-3-yl N-[3-(diethylamino)propyl]carbamate trifluoroacetic acid salt], the IC50 is 20 to 30 µM in the assay with MYC, under 10 µM with ALK and over 30 µM in the assay with KRAS G12D.
`COc1ccc(C[C@H]2NC[C@H](O)[C@H]2OC(=O)Nc2ccccc2)cc1` [V187666, (2R,3S,4S)-4-hydroxy-2-[(4-methoxyphenyl)methyl]pyrrolidin-3-yl N-phenylcarbamate]: the IC50 in the assay with ALK and in the assay with KRAS G12D was over 30 µM in each case.
On to `COc1ccc(C[C@H]2NC[C@H](O)[C@H]2OC(=O)NCCN2CCCC2)cc1` [V187565, (2R,3S,4S)-4-hydroxy-2-[(4-methoxyphenyl)methyl]pyrrolidin-3-yl N-[2-(pyrrolidin-1-yl)ethyl]carbamate; trifluoroacetic acid], for which the IC50 with MYC was over 30 µM; in the assay with ALK, under 10 µM; with KRAS G12D, over 30 µM.
For `COc1ccc(C[C@H]2NC[C@H](O)[C@H]2OC(=O)NCCOCCN(C)C)cc1` [V187383, (2R,3S,4S)-4-hydroxy-2-[(4-methoxyphenyl)methyl]pyrrolidin-3-yl N-{2-[2-(dimethylamino)ethoxy]ethyl}carbamate], the IC50 in the assay with ALK was under 10 µM; with KRAS G12D, over 30 µM.
Consider `COc1ccc(C[C@H]2NC[C@H](O)[C@H]2OC(=O)NCC[C@@H]2NC(=O)C3(CCNCC3)NC2=O)cc1` [V187327, (2R,3S,4S)-4-hydroxy-2-[(4-methoxyphenyl)methyl]pyrrolidin-3-yl N-{2-[(3S)-2,5-dioxo-1,4,9-triazaspiro[5.5]undecan-3-yl]ethyl}carbamate; trifluoroacetic acid], for which the IC50 in the assay on MYC is over 30 µM; with ALK it was under 10 µM; in the assay on KRAS G12D, over 30 µM.
As to `COc1ccc(C[C@H]2NC[C@H](O)[C@H]2OC(=O)NC2CC(F)(F)C2)cc1` [V187191, (2R,3S,4S)-4-hydroxy-2-[(4-methoxyphenyl)methyl]pyrrolidin-3-yl N-(3,3-difluorocyclobutyl)carbamate; trifluoroacetic acid], the values for the IC50 in the assay on MYC, in the assay on ALK and in the assay on KRAS G12D were 20 to 30 µM, under 10 µM and over 30 µM, respectively.
Regarding `COc1ccc(C[C@H]2NC[C@H](O)[C@H]2OC(=O)NCCO)cc1` [V187584, (2R,3S,4S)-4-hydroxy-2-[(4-methoxyphenyl)methyl]pyrrolidin-3-yl N-(2-hydroxyethyl)carbamate], the IC50 was under 10 µM in the assay with ALK and 10 to 20 µM in the assay with KRAS G12D.
For `COc1ccc(CC2NCC(O)C2OC(=O)NC2CC(N)C2)cc1` [V187682, (2R,3S,4S)-4-hydroxy-2-[(4-methoxyphenyl)methyl]pyrrolidin-3-yl N-[(1r,3r)-3-aminocyclobutyl]carbamate], the results for the IC50 with MYC, with ALK and in the assay with KRAS G12D were over 30 µM, 10 to 20 µM and over 30 µM, respectively.
For `COc1ccc(C[C@H]2NC[C@H](O)[C@H]2OC(=O)Nc2nnc(CN(Cc3ccccc3)Cc3ccccc3)s2)cc1` [V187551, (2R,3S,4S)-4-hydroxy-2-[(4-methoxyphenyl)methyl]pyrrolidin-3-yl N-{5-[(dibenzylamino)methyl]-1,3,4-thiadiazol-2-yl}carbamate], the IC50 in the assay on MYC and in the assay with KRAS G12D was over 30 µM in each case.
With `COc1ccc(CC2NCC(O)C2OC(=O)NC2CC(N)C2)cc1` [V187681, (2R,3S,4S)-4-hydroxy-2-[(4-methoxyphenyl)methyl]pyrrolidin-3-yl N-[(1s,3s)-3-aminocyclobutyl]carbamate], the IC50 with MYC, with ALK and with KRAS G12D was over 30 µM throughout.
As to `COc1ccc(C[C@H]2NC[C@H](O)[C@H]2OC(=O)Nc2n[nH]c(C)n2)cc1` [V187657, (2R,3S,4S)-4-hydroxy-2-[(4-methoxyphenyl)methyl]pyrrolidin-3-yl N-(5-methyl-1H-1,2,4-triazol-3-yl) carbamate], the IC50 with MYC is 10 to 20 µM; in the assay with ALK, under 10 µM; in the assay with KRAS G12D, 20 to 30 µM.
Turning to `COc1ccc(C[C@H]2NC[C@H](O)[C@H]2OC(=O)NCCN2CC(O)(C#N)C2)cc1` [V187567, (2R,3S,4S)-4-hydroxy-2-[(4-methoxyphenyl)methyl]pyrrolidin-3-yl N-[2-(3-cyano-3-hydroxyazetidin-1-yl)ethyl]carbamate], the IC50 lay in the range of 10 to 20 µM in the assay with MYC, 20 to 30 µM in the assay with CCND1 and 20 to 30 µM with KRAS G12D.
Turning to `COc1ccc(C[C@H]2NC[C@H](O)[C@H]2OC(=O)NCCNCCn2ccnc2)cc1` [V187637, (2R,3S,4S)-4-hydroxy-2-[(4-methoxyphenyl)methyl]pyrrolidin-3-yl N-(2-{[2-(imidazol-1-yl)ethyl]amino}ethyl)carbamate], the IC50 with MYC was in the range of 10 to 20 µM; with KRAS G12D, 20 to 30 µM.
With `COc1ccc(C[C@H]2NC[C@H](O)[C@H]2OC(=O)NCCNCCOC(C)C)cc1` [V187640, (2R,3S,4S)-4-hydroxy-2-[(4-methoxyphenyl)methyl]pyrrolidin-3-yl N-{2-[(2-isopropoxyethyl)amino]ethyl}carbamate; trifluoroacetic acid], the IC50 with MYC and in the assay on KRAS G12D was over 30 µM each time.
For the compound `COc1ccc(C[C@H]2NC[C@H](O)[C@H]2OC(=O)NC[C@@H]2CCCO2)cc1` [V187521, (2R,3S,4S)-4-hydroxy-2-[(4-methoxyphenyl)methyl]pyrrolidin-3-yl N-[(2S)-oxolan-2-ylmethyl]carbamate; trifluoroacetic acid], the IC50 with MYC is under 10 µM; with CCND1 it was under 10 µM; in the assay on MCL-1 it was under 10 µM; in the assay on KRAS G12D, 10 to 20 µM.
Regarding `COc1ccc(C[C@H]2NC[C@H](O)[C@H]2OC(=O)NNCc2ccno2)cc1` [V187668, 1-{[(2R,3S,4S)-4-hydroxy-2-[(4-methoxyphenyl)methyl]pyrrolidin-3-yl]oxy}-N′-(1,2-oxazol-5-ylmethyl)formohydrazide; trifluoroacetic acid], the IC50 was under 10 µM in the assay with ALK and 10 to 20 µM in the assay on KRAS G12D.
As for `COc1ccc(C[C@H]2NC[C@H](O)[C@H]2OC(=O)NCCN2CC(O)(CN)C2)cc1` [V187581, (2R,3S,4S)-4-hydroxy-2-[(4-methoxyphenyl)methyl]pyrrolidin-3-yl N-{2-[3-(aminomethyl)-3-hydroxyazetidin-1-yl]ethyl}carbamate; trifluoroacetic acid], the IC50 was 20 to 30 µM in the assay on MYC and over 30 µM in the assay on KRAS G12D.
As for `CCC(=O)NNC(=O)O[C@@H]1[C@@H](O)CN[C@@H]1Cc1ccc(OC)cc1` [V187739, 1-{[(2R,3S,4S)-4-hydroxy-2-[(4-methoxyphenyl)methyl]pyrrolidin-3-yl]oxy}-N′-propanoylformohydrazide; trifluoroacetic acid], the IC50 is under 10 µM in the assay on ALK and 10 to 20 µM in the assay on KRAS G12D.
As to `COc1ccc(C[C@H]2NC[C@H](O)[C@H]2OC(=O)NCCN2CCC3(C2)CC(F)(F)C3)cc1` [V187643, (2R,3S,4S)-4-hydroxy-2-[(4-methoxyphenyl)methyl]pyrrolidin-3-yl N-(2-{2,2-difluoro-6-azaspiro[3.4]octan-6-yl}ethyl)carbamate], the IC50 is 20 to 30 µM in the assay on ALK and over 30 µM with KRAS G12D.
Taken in the same sequence, the figures for `COc1ccc(C[C@H]2NC[C@H](O)[C@H]2OC(=O)Nc2nnc(CO)s2)cc1` [V187598, (2R,3S,4S)-4-hydroxy-2-[(4-methoxyphenyl)methyl]pyrrolidin-3-yl N-[5-(hydroxymethyl)-1,3,4-thiadiazol-2-yl]carbamate; trifluoroacetic acid] were under 10 µM and under 10 µM.
